Source: patent US11331327B2, “Antibacterial use of halogenated salicylanilides” (UNION therapeutics A/S, priority 2014, dated 2022)

Tested on: S. aureus clinical isolates and S. aureus ATCC 29213
Experiment: MIC assay according to CLSI criteria, Example 2, S. aureus strains
Type: cell-based, Staphylococcus aureus
Conditions: Staphylococcus aureus
In short: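 Wells received roughly 5×10^5 S. aureus cells taken in exponential growth, in cation-adjusted MH broth. Plates held aerobically at 37° C for 18 hours.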

Measured: MIC

CN[C@H](CC(C)C)C(=O)N[C@H]1C(=O)N[C@@H](CC(N)=O)C(=O)N[C@H]2C(=O)N[C@H]3C(=O)N[C@H](C(=O)N[C@H](C(=O)O)c4cc(O)cc(O)c4-c4cc3ccc4O)[C@H](O)c3ccc(c(Cl)c3)Oc3cc2cc(c3O[C@@H]2O[C@H](CO)[C@@H](O)[C@H](O)[C@H]2O[C@H]2C[C@](C)(N)[C@H](O)[C@H](C)O2)Oc2ccc(cc2Cl)[C@H]1O [Vancomycin]
2 µg/mL: ATCC29213, strain 115015T | ATCC29213, strain 115263C | ATCC29213, strain 115584D | ATCC29213, strain 115628T | ATCC29213, strain 115690C | ATCC29213, strain E5-1030469 | ATCC29213, strain E5-1041977 | ATCC29213, strain E5-1046085 | ATCC29213, strain E5-1046723 | ATCC29213, strain E5-1048204 | ATCC29213, strain E5-1048670 | ATCC29213, strain K115498 | ATCC29213, strain K115688 | ATCC29213, strain K115689 | ATCC29213, strain R000019 | ATCC 29213 / MRSA, strain MRSA 02 | ATCC 29213 / MRSA, strain MRSA 04 | ATCC 29213 / MRSA, strain MRSA 06 | ATCC 29213 / MRSA, strain MRSA 09 | ATCC 29213 / MRSA, strain MRSA 15 | ATCC 29213 / MRSA, strain MRSA 17 | ATCC 29213 / MRSA, strain MRSA 24 | ATCC 29213 / MRSA, strain MRSA 49 | ATCC 29213 / MRSA, strain MRSA 54 | ATCC 29213 / MRSA, strain MRSA 61 | ATCC 29213 / MRSA, strain MRSA 62 | ATCC 29213 / MRSA, strain MRSA 74 | ATCC 29213 / MRSA, strain MRSA 77 | ATCC 29213 / MRSA, strain MRSA 82 | ATCC 29213 / MRSA, strain MRSA 84 | ATCC 29213 / MRSA, strain MRSA 86 | ATCC 29213 / MRSA, strain MRSA 93 | ATCC 29213 / MRSA, strain MRSA 94 | ATCC 29213 / MRSA, strain MRSA 95 | ATCC 29213 / MRSA, strain MRSA 102 | ATCC 29213 / MRSA, strain MRSA 107 | ATCC 29213 / NEWMAN, strain Newman
1 µg/mL: ATCC29213, strain 9-1862936 | ATCC29213, strain 9-2625962 | ATCC29213, strain 9-2642158 | ATCC29213, strain 9-2955245 | ATCC29213, strain 9-26422166 | ATCC29213, strain 000040C | ATCC29213, strain 000041C | ATCC29213, strain 000274T | ATCC29213, strain 114660U | ATCC29213, strain 115242C | ATCC29213, strain 115268C | ATCC29213, strain 115273C | ATCC29213, strain 115295C | ATCC29213, strain 115303C | ATCC29213, strain 115370U | ATCC29213, strain 115427C | ATCC29213, strain 115445C | ATCC29213, strain 115561C | ATCC29213, strain 115691T | ATCC29213, strain 115740E | ATCC29213, strain 115810E | ATCC29213, strain 115903T | ATCC29213, strain 116122T | ATCC29213, strain ATCC 29213 | ATCC29213, strain E5-1029252 | ATCC29213, strain E5-1029558 | ATCC29213, strain E5-1030440 | ATCC29213, strain E5-1030472 | ATCC29213, strain E5-1030482 | ATCC29213, strain E5-1033076 (first line, r202) | ATCC29213, strain E5-1033076 (second line, r203) | ATCC29213, strain E5-1033088 | ATCC29213, strain E5-1033091 | ATCC29213, strain E5-1035277 | ATCC29213, strain E5-1035284 | ATCC29213, strain E5-1035775 | ATCC29213, strain E5-1035779 | ATCC29213, strain E5-1037958 | ATCC29213, strain E5-1037971 | ATCC29213, strain E5-1038279 | ATCC29213, strain E5-1038286 | ATCC29213, strain E5-1038294 | ATCC29213, strain E5-1039684 | ATCC29213, strain E5-1039697 | ATCC29213, strain E5-1041979 | ATCC29213, strain E5-1041980 | ATCC29213, strain E5-1041987 | ATCC29213, strain E5-1043184 | ATCC29213, strain E5-1043668 | ATCC29213, strain E5-1045179 | ATCC29213, strain E5-1046019 | ATCC29213, strain E5-1046020 | ATCC29213, strain E5-1046039 | ATCC29213, strain E5-1046070 | ATCC29213, strain E5-1046074 | ATCC29213, strain E5-1046096 | ATCC29213, strain E5-1046296 | ATCC29213, strain E5-1046297 | ATCC29213, strain E5-1046298 | ATCC29213, strain E5-1047585 | ATCC29213, strain E5-1047606 | ATCC29213, strain E5-1047924 | ATCC29213, strain E5-1048428 | ATCC29213, strain E5-1048654 | ATCC29213, strain EEFIC 01 | ATCC29213, strain EEFIC 02 | ATCC29213, strain K000772 | ATCC29213, strain K000796 | ATCC29213, strain K000863 | ATCC29213, strain K000864 | ATCC29213, strain K000866 | ATCC29213, strain R000020 | ATCC29213, strain R000024 | ATCC29213, strain U115579 | ATCC 29213 / MRSA, strain MRSA 01 | ATCC 29213 / MRSA, strain MRSA 03 | ATCC 29213 / MRSA, strain MRSA 05 | ATCC 29213 / MRSA, strain MRSA 07 | ATCC 29213 / MRSA, strain MRSA 08 | ATCC 29213 / MRSA, strain MRSA 10 | ATCC 29213 / MRSA, strain MRSA 11 | ATCC 29213 / MRSA, strain MRSA 13 | ATCC 29213 / MRSA, strain MRSA 14 | ATCC 29213 / MRSA, strain MRSA 16 | ATCC 29213 / MRSA, strain MRSA 18 | ATCC 29213 / MRSA, strain MRSA 19 | ATCC 29213 / MRSA, strain MRSA 20 | ATCC 29213 / MRSA, strain MRSA 21 | ATCC 29213 / MRSA, strain MRSA 23 | ATCC 29213 / MRSA, strain MRSA 25 | ATCC 29213 / MRSA, strain MRSA 26 | ATCC 29213 / MRSA, strain MRSA 27 | ATCC 29213 / MRSA, strain MRSA 27b | ATCC 29213 / MRSA, strain MRSA 28 | ATCC 29213 / MRSA, strain MRSA 29 | ATCC 29213 / MRSA, strain MRSA 30 | ATCC 29213 / MRSA, strain MRSA 31 | ATCC 29213 / MRSA, strain MRSA 32 | ATCC 29213 / MRSA, strain MRSA 33 | ATCC 29213 / MRSA, strain MRSA 34 | ATCC 29213 / MRSA, strain MRSA 35 | ATCC 29213 / MRSA, strain MRSA 36 | ATCC 29213 / MRSA, strain MRSA 37 | ATCC 29213 / MRSA, strain MRSA 38 | ATCC 29213 / MRSA, strain MRSA 39 | ATCC 29213 / MRSA, strain MRSA 40 | ATCC 29213 / MRSA, strain MRSA 41 | ATCC 29213 / MRSA, strain MRSA 42 | ATCC 29213 / MRSA, strain MRSA 43 | ATCC 29213 / MRSA, strain MRSA 44 | ATCC 29213 / MRSA, strain MRSA 45 | ATCC 29213 / MRSA, strain MRSA 46 | ATCC 29213 / MRSA, strain MRSA 50 | ATCC 29213 / MRSA, strain MRSA 51 | ATCC 29213 / MRSA, strain MRSA 52 | ATCC 29213 / MRSA, strain MRSA 53 | ATCC 29213 / MRSA, strain MRSA 56 | ATCC 29213 / MRSA, strain MRSA 57 | ATCC 29213 / MRSA, strain MRSA 58 | ATCC 29213 / MRSA, strain MRSA 59 | ATCC 29213 / MRSA, strain MRSA 63 | ATCC 29213 / MRSA, strain MRSA 64 | ATCC 29213 / MRSA, strain MRSA 65 | ATCC 29213 / MRSA, strain MRSA 66 | ATCC 29213 / MRSA, strain MRSA 67 | ATCC 29213 / MRSA, strain MRSA 68 | ATCC 29213 / MRSA, strain MRSA 69 | ATCC 29213 / MRSA, strain MRSA 70 | ATCC 29213 / MRSA, strain MRSA 71 | ATCC 29213 / MRSA, strain MRSA 72 | ATCC 29213 / MRSA, strain MRSA 73 | ATCC 29213 / MRSA, strain MRSA 75 | ATCC 29213 / MRSA, strain MRSA 76 | ATCC 29213 / MRSA, strain MRSA 78 | ATCC 29213 / MRSA, strain MRSA 79 | ATCC 29213 / MRSA, strain MRSA 80 | ATCC 29213 / MRSA, strain MRSA 81 | ATCC 29213 / MRSA, strain MRSA 83 | ATCC 29213 / MRSA, strain MRSA 85 | ATCC 29213 / MRSA, strain MRSA 87 | ATCC 29213 / MRSA, strain MRSA 88 | ATCC 29213 / MRSA, strain MRSA 89 | ATCC 29213 / MRSA, strain MRSA 90 | ATCC 29213 / MRSA, strain MRSA 91 | ATCC 29213 / MRSA, strain MRSA 92 | ATCC 29213 / MRSA, strain MRSA 96 | ATCC 29213 / MRSA, strain MRSA 97 | ATCC 29213 / MRSA, strain MRSA 98 | ATCC 29213 / MRSA, strain MRSA 99 | ATCC 29213 / MRSA, strain MRSA 100 | ATCC 29213 / MRSA, strain MRSA 101 | ATCC 29213 / MRSA, strain MRSA 103 | ATCC 29213 / MRSA, strain MRSA 104 | ATCC 29213 / MRSA, strain MRSA 105 | ATCC 29213 / MRSA, strain MRSA 106 | ATCC 29213 / MRSA, strain MRSA 108 | ATCC 29213 / MRSA, strain MRSA 109 | ATCC 29213 / MRSA, strain MRSA 110 | ATCC 29213 / MRSA, strain MRSA 111 | ATCC 29213 / MRSA, strain MRSA 112 | ATCC 29213 / MRSA, strain MRSA 113 | ATCC 29213 / MSSA, strain MSSA 01 | ATCC 29213 / MSSA, strain MSSA 02
0.5 µg/mL: ATCC 29213 / MRSA, strain MRSA 22 | ATCC 29213 / MRSA, strain MRSA 47 | ATCC 29213 / MRSA, strain MRSA 48 | ATCC 29213 / MRSA, strain MRSA 55 | ATCC 29213 / MRSA, strain MRSA 60
